Square brackets hold non-standard residues; d marks the D form. Peptide text beside a SMILES is read from it. Cya = N[C@@H](CS(=O)(=O)O)C(=O)O
Key:
heme oxygenase-1 (HO-1) = test: Western blot of HO-1; format: cell-based, human; conditions: for HO-1 protein level (Western blot): 8 hours
Description: RPE cells in triplicate wells of a 6-well plate were treated with HQ (170 μM) in the presence or absence of RSG (0.4 mM) for 8 hours. Total protein were extracted with RIPA buffer supplemented with protease inhibitors and phosphatase inhibitors, quantified with Bradford protein assay, and subjected to SDS-PAGE and Western blot as we have previously described.^21

human RPE cells [1] = test: RNA-seq whole transcriptome analysis; format: cell-based; conditions: 4 hours
Description: RPE cells in sextuplicate wells of a 6-well plate were treated for 4 hours with HQ (250 μM or 300 μM) in the presence or absence of RSG (0.4 mM). Total RNA was extracted using an RNeasy Mini Kit and DNA was removed with TURBO DNA-free kit. RNA quality was measured with a Bioanalyzer (Agilent Genomics, Santa Clara, Calif., USA). RNA-seq libraries were prepared from poly-A enriched messenger RNA and sequenced by GENEWIZ (South […], NJ, USA) to generate approximately 20-30 million paired-end, 150 base-pair reads per sample. RNA-seq FASTQ files were quality-tested with FastQC. Reads were aligned with STAR to human genome (GRCh38.p12) and transcriptome ([…]30) references, followed by read-quantification with featureCounts. Principal component analysis (PCA) was used to visualize the high-dimensional RNA-seq dataset using the top 15 thousand genes that had the highest average counts, as normalized by DESeq2's VST method. […] Enriched biological processes were condensed and visualized with […] with similarity metric set to small and GO term size determined by Uniport Homo Sapiens database; biologically relevant processes were selected and labeled. Six enriched KEGG pathways were selected for visualization of gene expression changes, based on their biological relevance and strength of negative correlation between HQ and RSG co-treatment. Empirical RNA-seq Sample Size Analysis (ERSSA) was used to check whether the six biological replicates used in this study were sufficient for differential expression discovery; analysis was performed with log 2FC cutoff of 0.25 and 50 subsamples at each replicate level.

human RPE cells [2] = test: Determination of Δψm (JC-1 dye); format: cell-based
Description: Human donor RPE cells were seeded on collagen-coated 96-well plates, 24-well plates with or without coverslips, 6-well plates (Corning-Costar Incorporated, Corning, N.Y., USA). Except for the Seahorse assay, on day 6 after plating, cells were washed twice with serum-free and phenol red-free MEM (SF-MEM), treated with HQ at a various concentrations in the presence or absence of RSG (0.4 mM) in SF-MEM for various times at 37° C. RSG co-treatment refers to the condition in which cells were treated with RSG in the presence of HQ. Control refers to the condition in which cells were not treated. RPE cells in triplicate wells of 96-well black plates with clear bottoms were washed with SF-MEM, loaded with 10 μM JC-1 dye in SF-MEM for 30 minutes at 37° C. and then washed twice. Cells were then treated with HQ (160 μM) with or without RSG (0.4 mM). A fluorescence plate reader was used to measure the fluorescence at various times to quantify green JC-1 monomer (490-nm excitation, 522-nm emission) and red JC-1 aggregates (535-nm excitation, 590-nm emission).

human RPE cells [3] = test: Flow cytometry (Annexin V / 7-AAD) cell death and light-microscopy morphology; format: cell-based
Description: Human donor eyes from a donor were obtained within 24 hrs. after death from the North Carolina Organ Donor and Eye Bank, Inc. (Winston-Salem, N.C., USA) in accordance with the provisions of the Declaration of Helsinki for research involving human tissue. Cells were grown in Eagle's minimal essential medium (MEM; Invitrogen) with 10% fetal bovine serum (FBS; Thermo Scientific) and with 1× penicillin/streptomycin (Thermo Scientific) at 37° C. in a humidified environment containing 5% CO2.
Human donor RPE cells were seeded on collagen-coated 96-well plates, 24-well plates with or without coverslips, 6-well plates (Corning-Costar Incorporated, Corning, N.Y., USA). Except for the Seahorse assay, on day 6 after plating, cells were washed twice with serum-free and phenol red-free MEM (SF-MEM), treated with HQ at a various concentrations in the presence or absence of RSG (0.4 mM) in SF-MEM for various times at 37° C. RSG co-treatment refers to the condition in which cells were treated with RSG in the presence of HQ. Control refers to the condition in which cells were not treated.
RPE cells in triplicate wells of a 6-well plate were treated with HQ (150 μM) in the presence or absence of RSG (0.4 mM) for 12 hours. Cell morphology was recorded by light microscopy, and then cells were detached with 1×TrypLE and centrifuged at 300 g for 5 minutes. Cells were re-suspended with 100 μL 1×Annexin V binding buffer, incubated with 5 μL Annexin V for 10 minutes and then 5 μL 7-AAD was added to the Annexin V mixture and incubated for additional 5 minutes. Cell death was analyzed with flow cytometry.

HMOX-1 = test: Real-time RT-PCR (qPCR) of HMOX-1; format: cell-based, human; conditions: 4 hours
Description: RPE cells in triplicate wells of a 12-well plate were treated with HQ (250 μM) in the presence or absence of RSG (0.4 mM) for 4 hours. Total RNA was isolated using RNeasy Plus Mini Kit according to the manufacturer's specifications and real-time quantitative reverse transcription-polymerase chain reaction (qPCR) was performed as we have described previously. Primer pairs for HMOX-1 and ribosomal protein, large, PO (RPLPO) were as follows (5′ to 3′): HMOX-1, forward: CAG GAG CTG ACC CAT GA; reverse: AGCAACTGTCGCCACCAGAA; RPLPO, forward: GGACATGTTGCTGGCCAATAA; reverse: GGG CCC GAG ACC AGT GTT.

Row | SMILES | HO-1 protein level (Western blot) (heme oxygenase-1 (HO-1); RSG 0.4 mM co-treatment with HQ 170 μM) | cellular stress and HO-1 activation (heme oxygenase-1 (HO-1); RSG alone) | HMOX-1 gene expression increase (RNA-seq) (human RPE cells [1]; RSG 0.4 mM co-treatment vs 250 μM HQ alone) | HMOX-1 gene expression increase (RNA-seq) (human RPE cells [1]; RSG 0.4 mM co-treatment vs 300 μM HQ alone) | genes regulated (differential expression) (human RPE cells [1]; RSG 0.4 mM co-treatment vs HQ alone) | number of differentially expressed (DE) genes (human RPE cells [1]; RSG alone 0.4 mM, vs control) | Δψm (mitochondrial membrane potential) (human RPE cells [2]; RSG 0.4 mM co-treatment with HQ 160 μM) | cell morphology (human RPE cells [3]; RSG 0.4 mM co-treatment with HQ 150 μM) | HQ-induced necrosis and apoptosis (cell death) (human RPE cells [3]; RSG 0.4 mM co-treatment with HQ 150 μM, 12 hours) | number of live and dead cells (human RPE cells [3]; RSG alone 0.4 mM, 12 hours, vs control) | HMOX-1 gene level (qPCR) (HMOX-1; RSG 0.4 mM co-treatment with HQ 250 μM) | HO-1 protein level (Western blot) (heme oxygenase-1 (HO-1); HQ 170 μM) | number of genes changed (differential expression) (human RPE cells [1]; HQ 250 μM or 300 μM, vs control) | HMOX-1 gene expression increase (RNA-seq) (human RPE cells [1]; HQ 250 μM) | HMOX-1 gene expression increase (RNA-seq) (human RPE cells [1]; HQ 300 μM) | Δψm (human RPE cells [2]; HQ 160 μM vs control) | cell morphology (human RPE cells [3]; HQ 150 μM) | cell death (necrosis, apoptosis) (human RPE cells [3]; HQ alone 150 μM, 12 hours) | HMOX-1 gene level (qPCR) (HMOX-1; HQ 250 μM)
1 | C[C@@H](O)[C@H](NC(=O)[C@H](CS(=O)(=O)O)NC(=O)CNC(=O)[C@H](CCCNC(=N)N)NC(=O)CN)C(=O)N1CCC[C@H]1C(=O)O [Risuteganib, Glycyl-L-arginylglycyl-3-sulfo-L-alanyl-L-threonyl-L-proline] (H-GRG[Cya]TP-OH) | further up-regulated | did not induce observable cellular stress and HO-1 activation | 241% | 391% | regulated thousands of genes | 15 genes | significantly improved HQ-mediated reduction in Δψm | improved HQ-induced morphological changes | significantly protected cells from HQ-induced necrosis and apoptosis | little effect | further up-regulated |  |  |  |  |  |  |  | 
2 | Oc1ccc(O)cc1 [HQ, hydroquinone, reference compound] |  |  |  |  |  |  |  |  |  |  |  | significantly up-regulated | approximately seven thousand | 618% | 420% | significantly decreased | caused cells to shrivel/detach | induced primarily necrotic cell death and much less apoptotic cell death | significantly up-regulated
